System: RSV strain A2
Assay: RSV antiviral cytoprotection assay in Hep2 cells (96-well and 384-well format, Cell TiterGlo read-out)
Format: cell-based, Respiratory Syncytial Virus (RSV)
Conditions: human respiratory syncytial virus; for inhibition at 0.5 µM: HEp-2, 0.5 uM, RSV-induced cytopathic effect in Hep2 cells, calculated from fitted dose response curve, normalized to 0% and 100%; for EC50: HEp-2, RSV-induced cytopathic effects, Hep2 cells, class symbols

| Compound | EC50 | inhibition at 0.5 µM |
| --- | --- | --- |
| Cc1cn2nc([C@@H]3CCCCN3C(=O)c3cc(CC(C)C)nn3C)cc2nc1N1CC[C@H](N)C1 [Compound 368] | 101 to 1000 nM | 58% |
| Cc1cn2nc([C@@H]3CCCCN3C(=O)c3csc4c3CCCC4)cc2nc1N1CC[C@H](N)C1 [Compound 369] | 0.1 to 100 nM | 91% |
| Cc1cn2nc([C@@H]3CCCCN3C(=O)c3scc4c3OCCO4)cc2nc1N1CC[C@H](N)C1 [Compound 373] | 0.1 to 100 nM | 99% |
| COc1ccc(Cl)c(C(=O)N2CCCC[C@H]2c2cc3nc(N4CC[C@H](N)C4)c(C)cn3n2)c1 [Compound 374] | 0.1 to 100 nM | 100% |
| CCCn1cc(Cl)c(C(=O)N2CCCC[C@H]2c2cc3nc(N4CC[C@H](N)C4)c(C)cn3n2)n1 [Compound 381] | 0.1 to 100 nM | 100% |
| Cc1cn2nc([C@@H]3CCCCN3C(=O)c3c(Cl)cnn3C(C)C)cc2nc1N1CC[C@H](N)C1 [Compound 382] | 0.1 to 100 nM | 99% |
| Cc1cn2nc([C@@H]3CCCCN3C(=O)c3ccc4[nH]c(C)c(C)c4c3)cc2nc1N1CC[C@H](N)C1 [Compound 386] | 0.1 to 100 nM | 97% |
| Cc1cn2nc([C@@H]3CCCCN3C(=O)c3cccc(-n4cnnc4)n3)cc2nc1N1CC[C@H](N)C1 [Compound 389] | 0.1 to 100 nM | 98% |
| Cc1cn2nc([C@@H]3CCCCN3C(=O)c3ccc(Cl)cc3Cl)cc2nc1N1CC[C@H](N)C1 [Compound 390] | 101 to 1000 nM | 86% |
| Cc1cn2nc([C@@H]3CCCCN3C(=O)c3ccc(Cl)c(Cl)c3)cc2nc1N1CC[C@H](N)C1 [Compound 392] | 0.1 to 100 nM | 95% |
| Cc1cn2nc([C@@H]3CCCCN3C(=O)c3cc(Cl)ncc3Cl)cc2nc1N1CC[C@H](N)C1 [Compound 395] | 0.1 to 100 nM | 100% |
| Cc1cc(C(=O)N2CCCC[C@H]2c2cc3nc(N4CC[C@H](N)C4)c(C)cn3n2)c(C(F)(F)F)o1 [Compound 399] | 0.1 to 100 nM | 100% |
| Cc1cn2nc([C@@H]3CCCCN3C(=O)c3ccnn3CC(F)(F)F)cc2nc1N1CC[C@H](N)C1 [Compound 401] | 0.1 to 100 nM | 100% |
| Cc1cn2nc([C@@H]3CCCCN3C(=O)c3cn(C)nc3C(F)(F)F)cc2nc1N1CC[C@H](N)C1 [Compound 402] | 0.1 to 100 nM | 99% |
| Cc1cn2nc([C@@H]3CCCCN3C(=O)c3cc(-c4cccs4)n[nH]3)cc2nc1N1CC[C@H](N)C1 [Compound 404] | 0.1 to 100 nM | 100% |
| Cc1cn2nc([C@@H]3CCCCN3C(=O)c3cc(C4(O)CCCC4)on3)cc2nc1N1CC[C@H](N)C1 [Compound 405] | 0.1 to 100 nM | 99% |
| Cc1cn2nc([C@@H]3CCCCN3C(=O)c3ccc(-c4cccnc4)cc3)cc2nc1N1CC[C@H](N)C1 [Compound 408] | 101 to 1000 nM | 59% |
| Cc1cn2nc([C@@H]3CCCCN3C(=O)c3ccccc3-c3cccnc3)cc2nc1N1CC[C@H](N)C1 [Compound 409] | 0.1 to 100 nM | 99% |

Second part, led by results:

| EC50 | Compound | inhibition at 0.5 µM |
| --- | --- | --- |
| 0.1 to 100 nM | Cc1cn2nc([C@@H]3CCCCN3C(=O)c3cc4c(s3)CCCC4)cc2nc1N1CC[C@H](N)C1 [Compound 370] | 99% |
| 0.1 to 100 nM | CNC(=O)c1cc(C(=O)N2CCCC[C@H]2c2cc3nc(N4CC[C@H](N)C4)c(C)cn3n2)n(C)n1 [Compound 371] | 100% |
| 101 to 1000 nM | CCC(=O)Nc1nonc1C(=O)N1CCCC[C@H]1c1cc2nc(N3CC[C@H](N)C3)c(C)cn2n1 [Compound 372] | 38% |
| 0.1 to 100 nM | COc1ccc(C(=O)N2CCCC[C@H]2c2cc3nc(N4CC[C@H](N)C4)c(C)cn3n2)cc1Cl [Compound 375] | 99% |
| 0.1 to 100 nM | COc1cc(Cl)cc(C(=O)N2CCCC[C@H]2c2cc3nc(N4CC[C@H](N)C4)c(C)cn3n2)c1 [Compound 376] | 100% |
| 0.1 to 100 nM | COc1cccc(C(=O)N2CCCC[C@H]2c2cc3nc(N4CC[C@H](N)C4)c(C)cn3n2)c1Cl [Compound 377] | 99% |
| 101 to 1000 nM | Cc1cn2nc([C@@H]3CCCCN3C(=O)c3ccc(OC(F)F)cc3)cc2nc1N1CC[C@H](N)C1 [Compound 378] | 48% |
| 0.1 to 100 nM | Cc1cn2nc([C@@H]3CCCCN3C(=O)c3ccccc3OC(F)F)cc2nc1N1CC[C@H](N)C1 [Compound 379] | 100% |
| 101 to 1000 nM | Cc1cn2nc([C@@H]3CCCCN3C(=O)c3ccc(F)c(C)c3Cl)cc2nc1N1CC[C@H](N)C1 [Compound 380] | 80% |
| 0.1 to 100 nM | Cc1cn2nc([C@@H]3CCCCN3C(=O)c3cc(-c4ccccc4)on3)cc2nc1N1CC[C@H](N)C1 [Compound 383] | 99% |
| 101 to 1000 nM | Cc1cn2nc([C@@H]3CCCCN3C(=O)c3cc(-c4cccnc4)n[nH]3)cc2nc1N1CC[C@H](N)C1 [Compound 384] | 48% |
| 101 to 1000 nM | Cc1cn2nc([C@@H]3CCCCN3C(=O)c3ccccc3C(F)(F)F)cc2nc1N1CC[C@H](N)C1 [Compound 387] | 77% |
| 0.1 to 100 nM | Cc1cn2nc([C@@H]3CCCCN3C(=O)c3ccnc(-n4cnnc4)c3)cc2nc1N1CC[C@H](N)C1 [Compound 388] | 100% |
| 0.1 to 100 nM | Cc1cn2nc([C@@H]3CCCCN3C(=O)c3cc(Cl)ccc3Cl)cc2nc1N1CC[C@H](N)C1 [Compound 391] | 99% |
| 0.1 to 100 nM | Cc1cc(C(=O)N2CCCC[C@H]2c2cc3nc(N4CC[C@H](N)C4)c(C)cn3n2)c2cnn(C)c2n1 [Compound 393] | 99% |
| 0.1 to 100 nM | Cc1cc(C)n2ncc(C(=O)N3CCCC[C@H]3c3cc4nc(N5CC[C@H](N)C5)c(C)cn4n3)c2n1 [Compound 394] | 100% |
| 0.1 to 100 nM | Cc1cn2nc([C@@H]3CCCCN3C(=O)c3ccc(Cn4cccn4)o3)cc2nc1N1CC[C@H](N)C1 [Compound 396] | 99% |
| 1000 to 10000 nM | Cc1cc(C)n2nc(C(=O)N3CCCCC3c3cc4nc(N5CC[C@H](N)C5)c(C)cn4n3)nc2n1 (stereo partly drawn) [Compound 397] | 3% |
| 0.1 to 100 nM | Cc1cn2nc([C@@H]3CCCCN3C(=O)c3[nH]c4ccc(F)cc4c3C)cc2nc1N1CC[C@H](N)C1 [Compound 398] | 99% |
| 0.1 to 100 nM | Cc1cn2nc([C@@H]3CCCCN3C(=O)c3cc(C(F)(F)F)n(C)n3)cc2nc1N1CC[C@H](N)C1 [Compound 400] | 100% |
| 0.1 to 100 nM | Cc1ccn2c(F)c(C(=O)N3CCCC[C@H]3c3cc4nc(N5CC[C@H](N)C5)c(C)cn4n3)nc2c1 [Compound 403] | 100% |
| 0.1 to 100 nM | Cc1cn2nc([C@@H]3CCCCN3C(=O)c3ccc(-c4ccccc4)cc3)cc2nc1N1CC[C@H](N)C1 [Compound 406] | 98% |
| 0.1 to 100 nM | Cc1cn2nc([C@@H]3CCCCN3C(=O)c3ccccc3-c3ccccc3)cc2nc1N1CC[C@H](N)C1 [Compound 407] | 92% |
| 1000 to 10000 nM | Cc1cn2nc([C@@H]3CCCCN3C(=O)c3cc(-c4ccccc4)ccn3)cc2nc1N1CC[C@H](N)C1 [Compound 410] |  |
| 101 to 1000 nM | Cc1cn2nc([C@@H]3CCCCN3C(=O)c3cccc(-c4cccnc4)c3)cc2nc1N1CC[C@H](N)C1 [Compound 411] | 95% |
| 0.1 to 100 nM | Cc1cn2nc([C@@H]3CCCCN3C(=O)c3ccccc3)cc2nc1N1CC[C@H](N)C1 [Compound 412] | 100% |

From US9238039B2, “Pyrazolo[1,5-A]pyrimidines for antiviral treatment” (Gilead Sciences, Inc., priority 2010, dated 2016)
